Values after ≈ are worked out from the molar mass of the structure shown. Read-outs that look alike come from different tables or passages of the source.
Tests used:
[1] = Solubility determination of nilotinib (saturated solution, 24 h stirring, filtrate analysed by gravimetry); assay type: physicochemical; settings: for solubility at 24 h: organic solvent or mixture, thermodynamic from solid
[2] = Metastability of the supersaturated nilotinib solution from the Solvent-Shift route (visual check for precipitation)
[3] = Glacial Acetic Acid, wt % of saturated solution
[4] = Methanol:Acetic Acid 9:1 (w:w), wt % of saturated solution
[5] = Methanol, wt % based on weight of the saturated solution

solubility at 24 h ([1]; 25 °C, Glacial Acetic Acid, mg per ml saturated solution, read-out: Solubility at 25° C.): 135000 µg/mL (≈ 255 mM) | solubility at 24 h ([1]; 25 °C, Methanol:Acetic Acid 9:1 (w:w), mg per ml saturated solution, read-out: Solubility at 25° C.): 6000 µg/mL (≈ 11.3 mM) | solubility at 24 h ([1]; 25 °C, Methanol, mg of nilotinib per ml saturated solution, read-out: Solubility at 25° C.): 2800 µg/mL (≈ 5.29 mM) | solubility at 24 h ([1]; 40 °C, Glacial Acetic Acid, mg per ml saturated solution, read-out: Solubility at 40° C.): 233000 µg/mL (≈ 440 mM) | Solubility at 25° C. [1, 3]: 12.7 wt % | Solubility at 40° C. [1, 3]: 21.1 wt % | Solubility at 40° C. ([1]; Methanol:Acetic Acid 9:1 (w:w), mg per ml saturated solution): 8 mg/mL (≈ 15.1 mM) | Solubility at 25° C. [1, 4]: 0.76 wt % | Solubility at 40° C. [1, 4]: 1.0 wt % | Solubility at 40° C. ([1]; Methanol, mg of nilotinib per ml saturated solution): 5.0 mg/mL (≈ 9.44 mM) | Solubility at 25° C. [1, 5]: 0.36 wt % | Solubility at 40° C. [1, 5]: 0.66 wt % | Time at which visible solids were observed ([2]; Example 1: 2.15 wt % nilotinib in 91.2:8.8 (w:w) methanol:acetic acid, 40° C., no polymer): 7.5 h | Appearance of the control mixture (nilotinib weighed directly into the solvent mixture) ([2]; Example 1 control: 2.06 wt % nilotinib in 89.5:10.5 (w:w) methanol:acetic acid, 40° C.): visible slurry | Time at which visible solids were observed ([2]; Example 3: 2.19 wt % nilotinib in 85.0:9.0:6.0 (w:w:w) methanol:acetic acid:PVP-VA64, 40° C.): 4 h
SMILES: Cc1cn(-c2cc(NC(=O)c3ccc(C)c(Nc4nccc(-c5cccnc5)n4)c3)cc(C(F)(F)F)c2)cn1 [Nilotinib]

Reference: patent US20230293439A1, “SPRAY DRYING OF SUPERSATURATED SOLUTIONS OF API WITH ACETIC ACID” (BEND RESEARCH, INC., priority 2020, published 2023)
